45 substances from patent US10517889B2, “Modulators of SMAD7 expression” (Ionis Pharmaceuticals, Inc., priority 2017, dated 2019) can be followed below.

Strand notation (5' to 3'): a small letter for the sugar, then the base; units joined by * are phosphorothioate-linked, units joined directly phosphodiester-linked; [ ] holds rarer units or linkages, { } end groups; capitals alone tell only the bases. k = constrained ethyl (cEt); [5mC] = 5-methylcytosine; d = 2'-deoxy (DNA)

The test system of this data set is human SMAD7 mRNA. The data set can be described thus: Antisense inhibition of human SMAD7 mRNA expression in Hep3B cells by 3-10-3 cEt gapmers, 10,000 nM, electroporation (Example 2). It counts as cell-based. The conditions noted are these: approximately 24 hours. An outline of the steps:
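Hep3B, 20,000 cells/well; electroporation, 10,000 nM ASO; ~24 h. Readout: SMAD7 mRNA by qRT-PCR (RTS5062), RIBOGREEN-normalised; % inhibition vs untreated.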

[1] abbreviates: SMAD7 mRNA, Hep3B cells, electroporation with 10,000 nM antisense oligonucleotide, primer probe set RTS5062, relative to untreated control cells.
[2] abbreviates: Hep3B cells, electroporation with 10,000 nM antisense oligonucleotide, SMAD7 mRNA by RT-PCR (RTS5062), relative to untreated control cells.
[3] abbreviates: Hep3B cells, electroporation, 10,000 nM antisense oligonucleotide, RTS5062, relative to untreated control cells.
[4] abbreviates: Hep3B cells, electroporation with 10,000 nM antisense oligonucleotide, primer probe set RTS5062, relative to untreated control cells.
The mark [5] stands for this setting: SMAD7 mRNA, Hep3B cells, 10,000 nM antisense oligonucleotide, electroporation, primer probe set RTS5062, relative to untreated control cells.
The mark [6] stands for this setting: Hep3B cells, 10,000 nM antisense oligonucleotide, electroporation, RT-PCR primer probe set RTS5062, relative to untreated control cells.
Where [7] appears, read: Hep3B cells, electroporation with 10,000 nM antisense oligonucleotide, RTS5062, percent inhibition of SMAD7 mRNA relative to untreated control cells.

By % Inhibition is commonly meant the change of the read-out against control, counted positive when it falls. A higher % Inhibition goes with a response far below the control. For the substance “829854 (antisense kG*k[5mC]*kT*dG*dA*d[5mC]*dT*d[5mC]*dT*dT*dG*dT*dT*kG*kT*k[5mC]) [compound 829854]”, the “% Inhibition” value under setting [1] came to 25%.

Consider “830063 (kT*k[5mC]*k[5mC]*d[5mC]*dT*dA*d[5mC]*d[5mC]*dA*d[5mC]*d[5mC]*d[5mC]*d[5mC]*kT*kG*kT; antisense) [compound 830063]”, for which the “% Inhibition” value under setting [2] turned out to be 37%.

Turning to “799518 (antisense kA*k[5mC]*kT*dT*dA*dA*dG*dT*dA*dG*dA*dG*d[5mC]*kA*kA*kA) [compound 799518]”, the “% inhibition of SMAD7 mRNA expression” value under setting [3] amounted to 38%.

“799093 (antisense kG*kT*k[5mC]*dA*d[5mC]*d[5mC]*dA*dG*dG*dG*d[5mC]*dA*dG*kG*k[5mC]*kA) [compound 799093]”: the “% Inhibition” value under setting [4] was 47%.

As to “772606 (kA*kG*k[5mC]*d[5mC]*dA*dT*dT*d[5mC]*d[5mC]*d[5mC]*d[5mC]*dT*dG*kA*kG*kG; antisense) [compound 772606]”, under setting [2], the “% Inhibition” value was determined as 41%.

On to “798779 (kA*kT*kT*d[5mC]*dA*d[5mC]*dA*dG*d[5mC]*dA*dA*d[5mC]*dA*k[5mC]*kA*kG; antisense) [compound 798779]”, for which the “% inhibition of SMAD7 mRNA expression” value under setting [4] was found to be 31%.

Consider “829764 (antisense k[5mC]*k[5mC]*kG*d[5mC]*dT*d[5mC]*d[5mC]*dT*dT*d[5mC]*dA*dG*dT*kT*kT*k[5mC]) [compound 829764]”, for which, under setting [5], the “% Inhibition” value worked out at 44%.

In the case of “799094 (antisense kT*kG*kA*dT*dG*dT*d[5mC]*dA*d[5mC]*d[5mC]*dA*dG*dG*kG*k[5mC]*kA) [compound 799094]”, the “% Inhibition” value under setting [4] was 57%.

On to “829964 (k[5mC]*kA*k[5mC]*d[5mC]*dT*dA*dG*dT*dT*d[5mC]*dG*d[5mC]*dA*kG*kA*kG; antisense) [compound 829964]”, for which the “% Inhibition” value under setting [1] was 3%.

As for “798697 (antisense kA*k[5mC]*k[5mC]*dT*d[5mC]*d[5mC]*d[5mC]*d[5mC]*d[5mC]*dT*dG*d[5mC]*dG*k[5mC]*k[5mC]*k[5mC]) [compound 798697]”, the “% Inhibition” value under setting [2] is 23%.

Turning to “799438 (antisense kA*kA*kG*dA*dG*dA*dG*dA*dA*dA*d[5mC]*dG*d[5mC]*kA*kG*kT) [compound 799438]”, the “% inhibition of SMAD7 mRNA expression” value under setting [4] turned out to be 32%.

“798901 (k[5mC]*k[5mC]*kT*d[5mC]*dT*dA*dG*d[5mC]*d[5mC]*dA*dG*d[5mC]*dA*k[5mC]*kG*kG; antisense) [compound 798901]”: under setting [2], the “% Inhibition” value is listed as 30%.

Regarding “799194 (antisense kT*kG*k[5mC]*dT*dA*dA*dA*dT*dT*dT*d[5mC]*d[5mC]*dA*kA*kT*kG) [compound 799194]”, the “% Inhibition” value under setting [4] was determined as 42%.

Take “800071 (antisense kT*kG*kT*dA*dT*dT*dT*dG*dT*dT*dA*dA*d[5mC]*kA*kA*kA) [compound 800071]”: the “% Inhibition” value under setting [6] stood at 2%.

With “798971 (antisense kG*kG*kT*dG*dT*d[5mC]*d[5mC]*dT*dG*d[5mC]*d[5mC]*dG*dA*kT*k[5mC]*kA) [compound 798971]”, the “% inhibition of SMAD7 mRNA expression” value under setting [4] came out at 53%.

On to “830029 (antisense kT*k[5mC]*kA*d[5mC]*dT*d[5mC]*d[5mC]*dA*d[5mC]*dT*d[5mC]*dA*d[5mC]*k[5mC]*kG*kA) [compound 830029]”, for which the “% Inhibition” value under setting [2] was determined as 56%.

For “798711 (antisense k[5mC]*kG*kG*d[5mC]*d[5mC]*d[5mC]*d[5mC]*dA*dT*dG*d[5mC]*dG*d[5mC]*kT*k[5mC]*kG) [compound 798711]”, under setting [4], the “% inhibition of SMAD7 mRNA expression” value worked out at 59%.

For the substance “799447 (antisense kA*kT*kG*dA*dA*dT*dG*dA*d[5mC]*d[5mC]*dT*dA*dA*kT*k[5mC]*kT) [compound 799447]”, the “% Inhibition” value under setting [2] was 30%.

“798710 (antisense k[5mC]*k[5mC]*k[5mC]*d[5mC]*dA*dT*dG*d[5mC]*dG*d[5mC]*dT*d[5mC]*dG*kG*k[5mC]*kT) [compound 798710]”: the “% inhibition of SMAD7 mRNA expression” value under setting [4] is 54%.

Take “829985 (kG*kA*kG*dG*d[5mC]*dG*dG*dT*dG*dA*dT*dT*dG*k[5mC]*k[5mC]*kT; antisense) [compound 829985]”: the “% Inhibition” value under setting [1] is given as 16%.

For the substance “799173 (antisense k[5mC]*kT*kA*dA*dA*d[5mC]*dA*dT*dG*d[5mC]*dT*d[5mC]*dA*kT*kT*kG) [compound 799173]”, the “% Inhibition” value under setting [4] was 18%.

As for “772551 (antisense kT*kT*k[5mC]*dA*dG*dA*dT*d[5mC]*d[5mC]*dG*d[5mC]*d[5mC]*dT*k[5mC]*kG*kG) [compound 772551]”, under setting [5], the “% Inhibition” value turned out to be 39%.

For the substance “799031 (kT*kG*k[5mC]*d[5mC]*dT*d[5mC]*dT*dG*d[5mC]*d[5mC]*d[5mC]*d[5mC]*dA*k[5mC]*kT*kG; antisense) [compound 799031]”, under setting [4], the “% inhibition of SMAD7 mRNA expression” value is 46%.

With “798913 (k[5mC]*k[5mC]*k[5mC]*dT*d[5mC]*d[5mC]*dG*d[5mC]*dA*d[5mC]*dG*d[5mC]*dG*kG*k[5mC]*kT; antisense) [compound 798913]”, under setting [6], the “% Inhibition” value worked out at 21%.

Regarding “829962 (k[5mC]*kT*kG*dA*dT*dT*dA*dT*dT*dA*dA*dT*dG*kG*kT*k[5mC]; antisense) [compound 829962]”, the “% Inhibition” value under setting [1] is reported as 19%.

For the substance “798721 (antisense kG*k[5mC]*k[5mC]*d[5mC]*dA*dG*dG*d[5mC]*dA*dG*d[5mC]*dA*dT*k[5mC]*k[5mC]*kA) [compound 798721]”, the “% Inhibition” value under setting [2] is 41%.

For the substance “799765 (antisense kA*kA*kG*d[5mC]*dA*d[5mC]*dG*d[5mC]*dT*dA*dA*dG*dG*kA*kA*kA) [compound 799765]”, under setting [7], the “% Inhibition” value was determined as 23%.

Turning to “799721 (antisense kG*kT*kA*dA*d[5mC]*dA*d[5mC]*dA*d[5mC]*dA*dG*d[5mC]*dA*kG*kA*kA) [compound 799721]”, under setting [3], the “% inhibition of SMAD7 mRNA expression” value is recorded as 42%.

With “829891 (antisense kA*kT*k[5mC]*dT*dG*d[5mC]*dA*d[5mC]*dG*dG*dT*dA*dA*kA*kG*k[5mC]) [compound 829891]”, the “% Inhibition” value under setting [1] came out at 25%.

Regarding “772589 (kA*k[5mC]*k[5mC]*dG*dA*dT*d[5mC]*d[5mC]*d[5mC]*d[5mC]*dA*dG*dG*k[5mC]*kT*k[5mC]; antisense) [compound 772589]”, the “% Inhibition” value under setting [5] is 9%.

Consider “799192 (antisense kT*kT*kT*d[5mC]*d[5mC]*dA*dA*dT*dG*dA*dG*dA*dA*kT*kG*k[5mC]) [compound 799192]”, for which the “% Inhibition” value under setting [4] is given as 60%.

Turning to “772536 (antisense kG*kA*k[5mC]*d[5mC]*dT*d[5mC]*d[5mC]*dG*d[5mC]*dA*d[5mC]*dA*d[5mC]*k[5mC]*kA*kT) [compound 772536]”, the “% Inhibition” value under setting [2] worked out at 22%.

“798962 (antisense kT*kT*k[5mC]*d[5mC]*dA*dA*dA*dA*dA*dA*dA*d[5mC]*d[5mC]*k[5mC]*k[5mC]*k[5mC]) [compound 798962]”: the “% Inhibition” value under setting [4] is recorded as 2%.

Consider “830111 (k[5mC]*k[5mC]*k[5mC]*dA*dT*dT*d[5mC]*dA*dT*dT*dA*dA*dG*k[5mC]*k[5mC]*k[5mC]; antisense) [compound 830111]”, for which, under setting [2], the “% Inhibition” value turned out to be 38%.

As to “799224 (k[5mC]*k[5mC]*kA*dA*dT*d[5mC]*dT*dT*dG*dT*dG*dT*dT*kT*kA*kT; antisense) [compound 799224]”, under setting [4], the “% Inhibition” value is on record as 3%.

Take “799871 (kT*kT*kG*dG*dA*d[5mC]*dA*d[5mC]*dA*d[5mC]*dT*d[5mC]*dA*k[5mC]*kT*kG; antisense) [compound 799871]”: the “% Inhibition” value under setting [6] is 0%.

For the substance “829761 (antisense kT*k[5mC]*kA*dG*dA*dT*d[5mC]*d[5mC]*dG*d[5mC]*d[5mC]*dT*d[5mC]*kG*kG*k[5mC]) [compound 829761]”, under setting [5], the “% Inhibition” value is on record as 21%.

On to “799713 (antisense k[5mC]*kA*k[5mC]*dA*dA*dT*d[5mC]*dA*d[5mC]*dT*dG*dT*dT*k[5mC]*k[5mC]*kT) [compound 799713]”, for which the “% inhibition of SMAD7 mRNA expression” value under setting [3] is 0%.

Turning to “790468 (kG*k[5mC]*kG*dA*dG*dG*dA*dG*dA*dA*dA*dA*dG*kT*k[5mC]*kG; antisense) [compound 790468]”, the “% inhibition of SMAD7 mRNA expression” value under setting [4] is 0%.

On to “798923 (kT*kT*kG*dA*dA*dG*dT*dG*dT*dG*dG*d[5mC]*d[5mC]*kT*kG*k[5mC]; antisense) [compound 798923]”, for which the “% Inhibition” value under setting [2] is given as 54%.

Consider “799147 (antisense kG*kT*kA*d[5mC]*d[5mC]*dT*dT*dG*dG*dG*dT*dT*dA*kT*kG*kA) [compound 799147]”, for which the “% inhibition of SMAD7 mRNA expression” value under setting [4] stood at 28%.

As for “799190 (antisense kA*kG*kA*dA*dT*dG*d[5mC]*dT*dT*d[5mC]*dT*d[5mC]*dT*kT*kG*kT) [compound 799190]”, the “% inhibition of SMAD7 mRNA expression” value under setting [4] worked out at 61%.

Consider “799413 (antisense kA*kT*kT*dA*d[5mC]*dT*dG*dA*dT*dG*d[5mC]*dT*dA*kA*kA*kT) [compound 799413]”, for which the “% Inhibition” value under setting [2] amounted to 34%.

Turning to “799547 (kT*k[5mC]*k[5mC]*dT*dA*d[5mC]*dT*dG*dT*dT*dG*dG*d[5mC]*kA*kG*kT; antisense) [compound 799547]”, the “% Inhibition” value under setting [7] was found to be 50%.

As to “799627 (k[5mC]*kA*k[5mC]*dA*dA*dG*d[5mC]*dT*dT*dG*d[5mC]*dA*d[5mC]*k[5mC]*k[5mC]*kA; antisense) [compound 799627]”, under setting [7], the “% Inhibition” value is reported as 48%.
